Source: patent US20150283227A1, “SYNTHETIC ENV PROTEINS” (priority 2012, published 2015)
“Also recorded” adds a separate entry of the source. Like-named read-outs stand apart in the source and are kept apart here. Marks after values point to notes of the source that are not given here.

Legend:
BnAb PG9 = type: binding, human
Protocol: V1V2 glycopeptide binding Kd and rate constant measurements were carried out on a BIAcore 3000 instrument using an anti-human Ig Fc capture assay as described earlier (Alam, S. M.; McAdams, M.; Boren, D.; Rak, M.; Scearce, R. M.; Gao, F.; Camacho, Z. T.; Gewirth, D.; Kelsoe, G.; Chen, P.; Haynes, B. F. J. Immunol. 2007, 178, 4424-4435.). Anti-human IgG Fc antibody (Sigma Chemicals) was immobilized on a CM5 sensor chip to about 10000 response units (RU), and each antibody was captured to about 300 RU. Anti-RSV Synagis mAb was captured on the same sensor chip as a control surface. Non-specific binding and drift in signal was double referenced by subtracting binding to the control surface and blank buffer flow for each of the peptide binding interactions. All curve-fitting analyses were performed using global fit of multiple titrations to the 1:1 Langmuir model. All data analysis was performed using the BIAevaluation 4.1 analysis software (GE Healthcare).

BnAb CH01 = test: SPR binding of V1V2 peptides/glycopeptides to captured mAb CH01; design: species or system human
V2 mAb CH58 = test: SPR binding of V1V2 peptides/glycopeptides to captured V2 mAb CH58; design: species or system human
PG9 UCA = test: SPR binding to unmutated ancestor of PG9; design: species or system human
Protocol: (§1) Only the V1/V2 mAb CH58 bound to the glycan-deficient (aglycone) peptide (FIG. 9A). V1/V2 bNAbs ([…], CH01) bound weakly to V1/V2 GlcNAc2 peptide (FIG. 9B). In contrast, both bNAbs PG9 and CH01 bound avidly to the glycopeptides, V1/V2 Man3GlcNAc2 and V1/V2 Man5GlcNAc2 (FIGS. 9C and 9D). CH58 bound weakly to both glycopeptides. Each of the mAbs was captured on a human Fc specific IgG directly immobilized on a BIAcore CM5 sensor chip. Each of the V1/V2 peptides (3 min at 50 uL/min) was injected over the mAb captured surface and SPR binding was monitored on a BIAcore 3000 instrument. Non-specific binding of peptides was subtracted following measurement of signal on a surface with a control ant-RSV mab Synagis.
(§2) The binding Kd (disassociation constant) of the UAs ranges from about 0.15 to 0.2 μM.
(§3) V1V2 glycopeptide binding Kd and rate constant measurements were carried out on BIAcore 3000 instruments as described earlier (Alam et al, Immunol. 178(7):4424-4435 (2007), Alam et al, J. Virol. 82(1):115-125 (2008)). Anti-human IgG Fc antibody (Sigma Chemicals) was immobilized on either a CM3 or CM5 (CM3 for kinetics and Kd determination) sensor chip (to minimize non-specific binding of peptides to chip matrix) to about 5000 Resonance Unit (RU) and each antibody was captured to about 100-200 RU on individual flow cells, in addition to one flow cell with the control Synagis mAb on the same sensor chip. Non-specific binding of V1V2 glycopeptide was double-referenced by substracting the control surface and blank buffer flow for each mAb-V1V2 glycopeptide binding interaction. […] SPR curve fitting analysis was performed using global fit of multiple titrations to the 1:1 Langmuir model. All data analysis was performed using the BIAevaluation 4.1 analysis software (GE Healthcare).

CH01 UCA = test: SPR binding to unmutated ancestor of CH01; design: species or system human
Protocol: as §1, §2, §3

CH58 UCA = test: SPR binding to unmutated ancestor of CH58; design: species or system human; conditions: Example 6; CH58 UCA; DMSO-oxidized dimer, 1-10 μg/mL
Protocol: as §1, §3

[1] = Circular dichroism analysis of V1V2 peptides; type: physicochemical; conditions: dimerized in 20% DMSO-phosphate buffer about 20 h
Protocol: Circular dichroism (CD) spectra of V1/V2 peptides were measured on an Aviv model 202 spectropolarimeter using a 1 mm path length quartz cuvette. The 20% DMSO-treated peptides were dialyzed against 20 mM phosphate buffer, pH 7.0 to remove DMSO using a dialysis cassette of MW cut-off 3500 Da. The CD spectra of peptides (at 100 200 μg/ml concentration) in phosphate buffer (pH 7.4) were recorded at 25° C. Three scans of the CD spectra of each peptide were averaged and the CD signal from phosphate buffer was subtracted out.

[2] = Example 5, peptides 200 μg/mL, glycans 25 μg/mL over captured PG9
[3] = glycans in the absence of the V2 peptide backbone
[4] = Example 6, spontaneously (air) oxidized, phosphate buffer, 50 ug/mL
[5] = Example 6, iodine-oxidized glycopeptide, 50 ug/mL

## CC(=O)NC1C(O)OC(CO)[C@@H](O[C@@H]2OC(CO)[C@@H](O[C@@H]3OC(CO[C@H]4OC(CO)[C@@H](O)[C@H](O)C4O)[C@@H](O)[C@H](O[C@H]4O[C@@H](CO)[C@@H](O)C(O)C4O)C3O)[C@H](O)C2NC(C)=O)[C@@H]1O (stereo partly drawn) [Man3GlcNAc2 glycan alone, [α-D-mannopyranosyl-(1→3)]-[α-D-mannopyranosyl-(1→6)]-β-D-mannopyranosyl-(1→4)-2-deoxy-2-N-acetyl-β-D-glucopyranosyl-(1→4)-2-deoxy-2-N-acetyl-D-glucopyranoside, reference compound]
BnAb PG9; [2]
  SPR binding to PG9: minimal to no binding
BnAb PG9; Example 5, peptides 200 μg/mL, glycans 25 μg/mL over captured PG9, listed as Man3GlcNAc2 glycan
  SPR binding to PG9: not detected
BnAb PG9; Example 5, peptides 200 μg/mL, glycans 25 μg/mL over captured PG9, listed as Man3GlcNAc2 oligosaccharide
  SPR binding to PG9: not detected
BnAb CH01; [3]
  SPR binding to CH01: not detected

## CC(=O)NC1C(O)OC(CO)[C@@H](O[C@@H]2OC(CO)[C@@H](O[C@@H]3OC(CO[C@H]4OC(CO[C@H]5OC(CO)[C@@H](O)[C@H](O)C5O)[C@@H](O)[C@H](O[C@H]5O[C@@H](CO)[C@@H](O)C(O)C5O)C4O)[C@@H](O)[C@H](O[C@H]4O[C@@H](CO)[C@@H](O)C(O)C4O)C3O)[C@H](O)C2NC(C)=O)[C@@H]1O (stereo partly drawn) [Man5GlcNAc2 glycan alone, reference compound]
BnAb PG9; [2]
  SPR binding to PG9: minimal to no binding
BnAb PG9; Example 5, peptides 200 μg/mL, glycans 25 μg/mL over captured PG9, listed as Man5GlcNAc2 glycan
  SPR binding to PG9: not detected
BnAb CH01; [3]
  SPR binding to CH01: not detected

## Man3GlcNAc2 V1V2
BnAb PG9; Example 1, peptide injected over mAb captured on anti-human Fc, BIAcore 3000, listed as V1/V2 Man3GlcNAc2
  SPR binding to PG9: bound avidly; also recorded: bind selectively
BnAb PG9; Example 5, PG9, read-out: Kd (order of magnitude)
  Kd: ~100 nM
BnAb PG9; Example 5, glycopeptide 1-40 μg/mL over captured PG9, not deliberately oxidized, global fit 1:1 Langmuir, read-out: Kd
  Kd: 119 nM
BnAb PG9; Example 6, PG9, glycopeptide fully oxidized in 20% DMSO (dimer), listed as Man3, read-out: Kd
  Kd: 37 nM
BnAb PG9; Example 6, PG9, glycopeptide fully oxidized in 20% DMSO (dimer), listed as Man3 GlcNAc2, read-out: Kd
  Kd: 37.1 nM
BnAb PG9; [4]
  SPR binding to PG9: weak or no binding
BnAb PG9; Table 1, PG9, glycopeptide fully oxidized in 20% DMSO (dimer)
  ka: 3.97 M^−1s^−1 (×10^3)
BnAb CH01; Example 1, peptide injected over captured mAb, listed as V1/V2 Man3GlcNAc2
  SPR binding to CH01: bound avidly; also recorded: bind selectively
BnAb CH01; [5]
  SPR binding to CH01: not to the BnAbs CH01 or PG9
BnAb CH01; [4]
  SPR binding to CH01: weak or no binding
BnAb CH01; Table 1, CH01, DMSO-oxidized dimer
  ka: 9.97 M^−1s^−1 (×10^3)
V2 mAb CH58; Example 1, antigen injected over captured mAb
  SPR binding to CH58: bound weakly
V2 mAb CH58; [5]
  SPR binding to CH58: bound
V2 mAb CH58; [4]
  SPR binding to CH58: show binding
PG9 UCA; Example 1
  SPR binding to PG9 UA: binds
PG9 UCA; Example 6
  SPR binding to PG9 UCA: bound
PG9 UCA; Example 6, PG9 UCA, DMSO-oxidized dimer
  Kd: 1100 nM
PG9 UCA; Example 6, PG9 UCA, DMSO-oxidized dimer, derived using faster component of dissociation phase
  Kd: 1060 nM
PG9 UCA; Table 1, PG9 UCA, DMSO-oxidized dimer
  ka: 5.33 M^−1s^−1 (×10^3)
CH01 UCA; Example 1
  SPR binding to CH01 UA: binds
CH01 UCA; Example 6
  SPR binding to CH01 UCA: bound
CH01 UCA; Example 6, CH01 UCA, DMSO-oxidized dimer
  Kd: 1800 nM
CH01 UCA; Example 6, CH01 UCA, DMSO-oxidized dimer, derived using faster component of dissociation phase
  Kd: 1780 nM
CH01 UCA; Table 1, CH01 UCA, DMSO-oxidized dimer
  ka: 2.06 M^−1s^−1 (×10^3)
CH58 UCA
  Kd: 600 nM
[1]
  β-strand (CD spectra deconvolution, K2D3): 33%
